According to patent US10793568B2, “Hormone receptor modulators for treating metabolic conditions and disorders” (ARDELYX, INC., priority 2016, dated 2020):

Key:
[1] = molecular target: human Farnesoid X receptor ligand-binding domain/Gal4 DNA binding domain chimera (Homo sapiens (Human), UniProt Q96RI1); assay: Cell-based assay of FXR activation (FXR-UAS-bla HEK 293T beta-lactamase reporter); settings: cellular FXR beta-lactamase reporter assay; for Emax: HEK-293T, extent of activation relative to GW4064, read-out: % Efficacy; for EC50: FXR-UAS-bla HEK 293T cells, 16 h, pEC50 = -log EC50
human Farnesoid X receptor ligand-binding domain/Gal4 DNA binding domain chimera, sequence (Q96RI1 262-486, change not shown): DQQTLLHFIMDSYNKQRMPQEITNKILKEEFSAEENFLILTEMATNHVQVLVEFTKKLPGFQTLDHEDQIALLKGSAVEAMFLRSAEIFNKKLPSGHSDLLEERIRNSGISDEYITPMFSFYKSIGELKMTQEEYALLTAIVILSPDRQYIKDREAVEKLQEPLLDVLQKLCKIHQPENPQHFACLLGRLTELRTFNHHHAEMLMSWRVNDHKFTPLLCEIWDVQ
human Farnesoid X receptor ligand-binding domain/Gal4 DNA binding domain chimera, sequence (P04386 1-147 partner): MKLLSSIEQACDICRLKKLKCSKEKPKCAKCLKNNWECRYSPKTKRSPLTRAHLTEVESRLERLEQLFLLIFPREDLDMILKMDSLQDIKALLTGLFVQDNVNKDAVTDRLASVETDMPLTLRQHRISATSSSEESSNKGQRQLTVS
Method in brief: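 HEK 293T cells stably expressing a Gal4-fused human FXR LBD and a UAS-driven beta-lactamase reporter were incubated with serially diluted compounds for 16 h at 37 °C in phenol red-free DMEM with 2% charcoal-stripped FBS. CCF4 FRET read-out: excitation 409 nm, emission 447 nm. pEC50 comes from a 3-parameter logistic fit, and efficacy is given as % of GW4064.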

[2] = molecular target: ligand binding domain of human FXR (Homo sapiens (Human), UniProt Q96RI1); assay: FXR ligand binding assay (LanthaScreen TR-FRET, SRC2-2 peptide recruitment); settings: for pEC50: -log EC50, concentration required to produce 50% activation; for Emax: extent of activation relative to GW4064, read-out: % Efficacy
ligand binding domain of human FXR, sequence (Q96RI1 262-486): as the sequence (Q96RI1 262-486, change not shown) above

SMILES | Emax [1] [%] | EC50 [1] [nM] | pEC50 [2] | Emax [2] [%]
O=C(O)c1cc(OC(F)(F)F)c2nc(N3C[C@@H]4C[C@H]3C[C@H]4OC(=O)c3c(-c4ccccc4C(F)(F)F)noc3C3CC3)sc2c1 [Compound I-9, 2-[(1S,4S,5R)-5-{5-cyclopropyl-3-[2-(trifluoromethyl)phenyl]-1,2-oxazole-4-carbonyloxy}-2-azabicyclo[2.2.1]heptan-2-yl]-4-(trifluoromethoxy)-1,3-benzothiazole-6-carboxylic Acid] | 107 | 5.01 | 7.1 | 172
O=C(O)C1(c2ccc(N3C[C@@H]4C[C@H]3C[C@H]4OCc3c(-c4c(Cl)cccc4Cl)noc3C3CC3)cc2)CCC1 [Compound I-150, 1-{4-[(1S,4S,5R)-5-{[5-cyclopropyl-3-(2,6-dichlorophenyl)-1,2-oxazol-4-yl]methoxy}-2-azabicyclo[2.2.1]heptan-2-yl]phenyl}cyclobutane-1-carboxylic Acid] | 96 | 25.1 | 8.9 | 102
O=C(NS(=O)(=O)CCCCCCCCCCN1CCC1)c1ccc(N2C[C@@H]3C[C@H]2C[C@H]3OCc2c(-c3c(Cl)cccc3Cl)noc2C2CC2)c(F)c1 [Compound I-227, N-[10-(azetidin-1-yl)decanesulfonyl]-4-[(1S,4S,5R)-5-{[5-cyclopropyl-3-(2,6-dichlorophenyl)-1,2-oxazol-4-yl]methoxy}-2-azabicyclo[2.2.1]heptan-2-yl]-3-fluorobenzamide] | 97 | 1 | 8.1 | 163
O=C(NS(=O)(=O)C1CC1)c1ccc(N2C[C@H]3C[C@@H]2C[C@@H]3OCc2c(-c3c(Cl)cccc3Cl)noc2C2CC2)c(F)c1 [Compound I-231, 4-((1R,4R,5S)-5-((5-cyclopropyl-3-(2,6-dichlorophenyl)isoxazol-4-yl)methoxy)-2-azabicyclo[2.2.1]heptan-2-yl)-N-(cyclopropylsulfonyl)-3-fluorobenzamide] | 106 | 15.8 | 8.4 | 110
Fc1cc(CCc2nn[nH]n2)ccc1N1C[C@@H]2C[C@H]1C[C@H]2OCc1c(-c2c(Cl)cccc2Cl)noc1C1CC1 [Compound I-162, (1S,4S,5R)-5-{[5-cyclopropyl-3-(2,6-dichlorophenyl)-1,2-oxazol-4-yl]methoxy}-2-{2-fluoro-4-[2-(2H-1,2,3,4-tetrazol-5-yl)ethyl]phenyl}-2-azabicyclo[2.2.1]heptane] | 105 | 6.31 | 8.1 | 140
CCc1cc(C(=O)O)ccc1N1C[C@@H]2C[C@H]1C[C@H]2OCc1c(-c2c(Cl)cccc2Cl)noc1C1CC1 [Compound I-109, 4-((1S,4S,5R)-5-((5-cyclopropyl-3-(2,6-dichlorophenyl)isoxazol-4-yl)methoxy)-2-azabicyclo[2.2.1]heptan-2-yl)-3-ethylbenzoic acid] | 100 | 1.58 | 9.4 | 117
O=C(O)c1cc(F)c2nc(N3C[C@@H]4C[C@H]3C[C@H]4OCc3c(-c4ccccc4O)noc3C3CC3)sc2c1 [Compound I-291, 2-((1S,4S,5R)-5-((5-cyclopropyl-3-(2-hydroxyphenyl)isoxazol-4-yl)methoxy)-2-azabicyclo[2.2.1]heptan-2-yl)-4-fluorobenzo[d]thiazole-6-carboxylic acid] |  | < 31.6 | 6.1 | 120
O=C(O)c1cc([C@H]2CCOC2)c2nc(N3C[C@@H]4C[C@H]3C[C@H]4OCc3c(-c4c(Cl)cccc4Cl)noc3C3CC3)sc2c1 [Compound I-253, 2-[(1S,4S,5R)-5-{[5-cyclopropyl-3-(2,6-dichlorophenyl)-1,2-oxazol-4-yl]methoxy}-2-azabicyclo[2.2.1]heptan-2-yl]-4-[(3R)-oxolan-3-yl]-1,3-benzothiazole-6-carboxylic Acid] | 107 | 0.158 | 8.6 | 140
O=C(O)c1ccc2nc(N3C[C@@H]4C[C@H]3C[C@H]4OC(=O)c3c(-c4c(Cl)cccc4Cl)noc3C3CC3)sc2c1 [Compound I-2, 2-[(1S,4S,5R)-5-[5-cyclopropyl-3-(2,6-dichlorophenyl)-1,2-oxazole-4-carbonyloxy]-2-azabicyclo[2.2.1]heptan-2-yl]-1,3-benzothiazole-6-carboxylic acid] | 120 | 10 | 7.3 | 138
O=C(O)c1cc(O[C@@H]2CCOC2)c2nc(N3C[C@@H]4C[C@H]3C[C@H]4OCc3c(-c4c(F)cccc4Cl)noc3C3CC3)sc2c1 [Compound I-268, 2-((1S,4S,5R)-5-((3-(2-chloro-6-fluorophenyl)-5-cyclopropylisoxazol-4-yl)methoxy)-2-azabicyclo[2.2.1]heptan-2-yl)-4-(((R)-tetrahydrofuran-3-yl)oxy)benzo[d]thiazole-6-carboxylic acid] | 102 | 1.58 | 8.6 | 146
O=C(O)c1cc(C2CCC2)c2nc(N3C[C@@H]4C[C@H]3C[C@H]4OCc3c(C4CCC5(CC4)CC5)noc3C3CC3)sc2c1 [Compound I-282, 4-cyclobutyl-2-((1S,4S,5R)-5-((5-cyclopropyl-3-(spiro[2.5]octan-6-yl)isoxazol-4-yl)methoxy)-2-azabicyclo[2.2.1]heptan-2-yl)benzo[d]thiazole-6-carboxylic acid] | 117 | 25.1 | 7.4 | 100
N#Cc1c(F)cc(N2C[C@@H]3C[C@H]2C[C@H]3OCc2c(-c3c(Cl)cccc3Cl)noc2C2CC2)cc1F [Compound I-133, 4-[(1S,4S,5R)-5-{[5-cyclopropyl-3-(2,6-dichlorophenyl)-1,2-oxazol-4-yl]methoxy}-2-azabicyclo[2.2.1]heptan-2-yl]-2,6-difluorobenzonitrile] | 106 | < 39.8 | 7.4 | 79
CS(=O)(=O)NC(=O)c1ccc(N2C[C@@H]3C[C@H]2C[C@H]3OCc2c(-c3c(Cl)cccc3Cl)noc2C2CC2)cc1 [Compound I-58, 4-[(1S,4S,5R)-5-{[5-cyclopropyl-3-(2,6-dichlorophenyl)-1,2-oxazol-4-yl]methoxy}-2-azabicyclo[2.2.1]heptan-2-yl]-N-methanesulfonylbenzamide] | 104 | 0.501 | 8.4 | 153
O=C(NS(=O)(=O)C1CCOC1)c1ccc(N2C[C@@H]3C[C@H]2C[C@H]3OCc2c(-c3c(Cl)cccc3Cl)noc2C2CC2)cc1 (stereo partly drawn) [Compound I-185, 4-((1S,4S,5R)-5-((5-cyclopropyl-3-(2,6-dichlorophenyl)isoxazol-4-yl)methoxy)-2-azabicyclo[2.2.1]heptan-2-yl)-N-((tetrahydrofuran-3-yl)sulfonyl)benzamide] | 105 | 0.1 | 8.9 | 155
CS(=O)(=O)CCNC(=O)c1ccc(N2C[C@@H]3C[C@H]2C[C@H]3OCc2c(-c3c(Cl)cccc3Cl)noc2C2CC2)cc1F [Compound I-170, 4-[(1S,4S,5R)-5-{[5-cyclopropyl-3-(2,6-dichlorophenyl)-1,2-oxazol-4-yl]methoxy}-2-azabicyclo[2.2.1]heptan-2-yl]-2-fluoro-N-(2-methanesulfonylethyl)benzamide] | 103 | 1.26 | 9.4 | 142
